Test results as given in patent publication US11505537B2, “Compositions comprising methylphenidate-prodrugs, processes of making and using the same” (KemPharm, Inc., priority 2016, dated 2022).
Structures can show the parent of a compound that is named as a salt. Where two headings read alike, the source gives them in different places.

Tests used:
[1] = Intravenous PK in rats, conjugate vs unconjugated d-methylphenidate; type: in vivo; settings: analyte d-methylphenidate
[2] = Oral PK in rats, conjugate vs unconjugated d-methylphenidate (LC-MS/MS); type: in vivo; settings: analyte d-methylphenidate, […] d-MPH content, hydrochloride
Protocol: (§1) The plasma concentrations of d-methylphenidate were measured by LC-MS/MS over time. The oral plasma concentrations of d-methylphenidate released from d-threo-MPH-CO2CH2-nicotinoyl-L-Ser were compared with unconjugated d-methylphenidate after oral administration in rats.
The human equivalent dose for the conjugate was 0.8 mg/kg as compared to 0.4 mg/kg for unconjugated d-methylphenidate.

[3] = Intranasal PK in rats, conjugate vs unconjugated d-methylphenidate; type: in vivo; settings: analyte d-methylphenidate
Protocol: as §1
As shown in FIG. 5 and Table 10, after 4.75 mg conjugate was intranasally administered to rats, plasma concentrations of d-methylphenidate released from the conjugate are substantially flat from about 0 to about 1 hour following intranasal administration in a rat. […] Conjugated d-methylphenidate was about 6% AUC and 5% Cmax of unconjugated d-methylphenidate.

[4] = Oral PK in rats of d- and l-isomers (unconjugated MPH, L-Ser and L-Thr conjugates) at equimolar doses; settings: for Cmax: equimolar doses; for d:l Ratio AUC / d:l Ratio Cmax / d:l Ratio Tmax: d-isomer vs l-isomer; for d:l Ratio AUC: mean AUC; for d:l Ratio Cmax: mean Cmax
Protocol: In another embodiment, the following compounds were dosed orally in rats at equimolar doses: d-MPH.HCl, l-MPH.HCl, d-MPH-CO2CH2-nicotinoyl-L-Ser, l-MPH-CO2CH2-nicotinoyl-L-Ser, d-MPH-CO2CH2-nicotinoyl-L-Thr, and l-MPH-CO2CH2-nicotinoyl-L-Thr.

[5] = Solubility in IPA/IPAc inferred from recrystallization; type: physicochemical; settings: isopropylalcohol/isopropylacetate, from recrystallization yields
From the text: In one embodiment, the conjugate d/l-MPH-CO2CH2-nicotinoyl-L-Ser was recrystallized from a mixture (1:1) of isopropylalcohol (IPA) and isopropylacetate (IPAc) yielding approximately 45.2% of product (purity of about 98% by HPLC). A similar amount of d-MPH-CO2CH2-nicotinoyl-L-Ser recrystallized from IPA and IPAc (2:1) yielded approximately 81.5% of product (purity of about 97.6% by HPLC).

[6] = Human single-dose PK of 32 mg d-MPH-CO2CH2-nicotinoyl-L-Ser oral liquid, fasted; settings: single 32 mg oral liquid
From the text: Twenty-four (24) healthy volunteers were enrolled in this open-label, single-dose, two-treatment, two-period PK trial.

[7] = Human single-dose PK of 60 mg d-MPH-CO2CH2-nicotinoyl-L-Ser chloride capsules, fasted and fed; type: in vivo; settings: for AUC(0-inf) / half-life / AUC(0-t) / Tmax / Cmax: both sexes, plasma, analyte d-MPH-CO2CH2-nicotinoyl-L-Ser; for Tmax: read-out: Tmax (median)
Protocol: A human study was conducted to evaluate the pharmacokinetics of d-MPH-CO2CH2-nicotinoyl-L-Ser and d-methylphenidate after oral administration of 60 mg d-MPH-CO2CH2-nicotinoyl-L-Ser chloride gelatin capsules in healthy volunteers under fasted and fed conditions. Fourteen (14) subjects were enrolled in this phase 1, open-label, single dose, two-period, randomized, crossover study. Eligible subjects included healthy male and female volunteers between the age of 18 and 55 years with a body mass index (BMI) between 18 and 32 kg/m^2 and a body weight between 50 and 100 kg at screening.
Two single-dose treatments were administered with a minimum 96-hour washout period between doses. Blood samples for pharmacokinetics were collected pre-dose and at 0.5, 0.75, 1, 1.5, 2, 2.5, 3, 3.5, 4.5, 6, 8, 10, 12, 16, 24, and 36 hours±5 minutes post-dose, in each treatment period.

[8] = Human single- and multiple-dose PK of d-MPH HCl/conjugate dose mixtures vs Concerta 54 mg, once daily for 7 days, fasted; type: in vivo
From the text: Forty-eight (48) healthy volunteers (12 per treatment arm) were enrolled in this open-label, single- and multiple-dose, four-treatment, one-period parallel PK trial.
Eligible subjects included healthy male and female volunteers between the age of 18 and 55 years with a body mass index (BMI) between 18 and 32 kg/m^2 and a body weight between 60 and 100 kg at screening. The primary objective of the study was to assess the single and multiple dose pharmacokinetics of d-MPH-CO2CH2-nicotinoyl-L-Ser and d-methylphenidate following multiple doses of different combinations of d-methylphenidate HCl/d-MPH-CO2CH2-nicotinoyl-L-Ser Chloride administered orally once per day for 7 days in healthy volunteers under fasted conditions, compared to the same dosing regimen with a Concerta® tablet. After the 1st dose of study drug (Day 1), blood samples for PK were collected at pre-dose (0 hour; within 1 hour prior to dosing), and at 0.5, 1, 1.5, 2, 2.5, 3, 4.5, 6, 7, 7.5, 8, 8.5, 9, 10, 12, 13, and 24 hours±5 minutes post-dose. The 24-hr post-dose blood sample was taken before administration of the 2nd dose of study drug. After the 2nd, 3rd, 4th, 5th and 6th dose of study drug (Days 2-6), blood samples were collected at pre-dose (within 10 minutes prior to dosing), and at 1.5 and 8 hours±5 minutes post-dose. The pre-dose sample on Day 2 was the same as the 24-hour post-dose sample after the 1st dose. After the last dose (7th dose) of study drug (Day 7), blood samples for PK were collected at pre-dose (within 10 minutes prior to dosing), and at 0.5, 1, 1.5, 2, 2.5, 3, 4.5, 6, 7, 7.5, 8, 8.5, 9, 10, 12, 13, 24, 36, 48, 60 and 72 hours±5 minutes post-dose.

SMILES: COC(=O)[C@H](c1ccccc1)[C@H]1CCCCN1.Cl [d-MPH•HCl, (2R,2′R)-(+)-Methylphenidate hydrochloride]
- AUC0-1 h [1]: 312.6 ng·h/mL
- AUC0-2 h [1]: 534.9 ng·h/mL
- Cmax [1]: 541.8 ng/mL
- Tmax [1]: 24 min
- Tmax [2]: 24 min
- Tmax ([2]; listed as unconjugated d-methylphenidate): about 0.4 h
- AUC0-1 h [3]: 1110.8 ng·h/mL
- Cmax [3]: 2561.6 ng/mL
- Tmax [3]: 6 min
- AUC ([4]; analyte d-MPH): 119.2 ng·h/mL
- Tmax ([4]; analyte d-MPH): 24 min
- Cmax ([4]; analyte d-MPH): 98.9 ng/mL
- d:l Ratio AUC [4]: ~124%
- d:l Ratio Cmax [4]: about 192%

SMILES: COC(=O)[C@@H](c1ccccc1)[C@@H]1CCCCN1C(=O)OC[n+]1cccc(C(=O)N[C@@H](CO)C(=O)[O-])c1 [l-MPH-CO2CH2-nicotinoyl-L-Ser]
- solubility in IPA/IPAc compared to d-MPH-CO2CH2-nicotinoyl-L-Ser [5]: significantly higher

SMILES: COC(=O)[C@H](c1ccccc1)[C@H]1CCCCN1C(=O)OC[n+]1cccc(C(=O)N[C@@H](CO)C(=O)O)c1 [d-MPH-CO2CH2-nicotinoyl-L-Ser, d-methylphenidate-CO2CH2-nicotinoyl-L-Ser]
- Plasma concentration of intact prodrug at 24 hours post dose [6]: about 0
- Time until which plasma concentrations of intact prodrug increased ([6]; N=24): about 2 hours

SMILES: COC(=O)C(c1ccccc1)C1CCCCN1C(=O)OC[n+]1cccc(C(=O)N[C@H](C(=O)[O-])[C@@H](C)O)c1 (stereo partly drawn) [MPH-CO2CH2-nicotinoyl-L-Thr]
- d:l Ratio Tmax [4]: 57%
- d:l Ratio AUC [4]: 53%
- d:l Ratio Cmax [4]: 58%

SMILES: COC(=O)C(c1ccccc1)C1CCCCN1C(=O)OC[n+]1cccc(C(=O)N[C@@H](CO)C(=O)[O-])c1 (stereo partly drawn) [MPH-CO2CH2-nicotinoyl-L-Ser]
- d:l Ratio Tmax [4]: 182%
- d:l Ratio AUC [4]: 73%
- d:l Ratio Cmax [4]: 94%

SMILES: COC(=O)[C@H](c1ccccc1)[C@H]1CCCCN1C(=O)OC[n+]1cccc(C(=O)N[C@@H](CO)C(=O)O)c1.[Cl-] [d-MPH-CO2CH2-nicotinoyl-L-Ser chloride, 3-((S)-1-carboxy-2-hydroxyethylcarbamoyl)-1-(((R)-2-(2-(R)-methoxy-2-oxo-1-phenylethyl)piperidine-1-carbonyloxy)methyl)pyridium chloride]
- peak d-MPH exposure in the fed state vs fasted ([7]; analyte d-MPH, single oral 60 mg): slightly higher
- AUC(0-inf) ([7]; human, oral, 60 mg, Fasted): 309 ng·h/mL
- half-life ([7]; human, oral, 60 mg, Fasted): 350 min
- AUC(0-t) ([7]; human, oral, 60 mg, Fasted, read-out: AUC0-24 hr): 300 ng·h/mL
- AUC(0-t) ([7]; human, oral, 60 mg, Fasted, read-out: AUC0-last): 306 ng·h/mL
- Tmax ([7]; human, oral, 60 mg, Fasted): 30 min
- AUC(0-inf) ([7]; human, oral, 60 mg, Fed): 84.2 ng·h/mL
- Cmax ([7]; human, oral, 60 mg, Fed): 10.2 ng/mL
- half-life ([7]; human, oral, 60 mg, Fed): 366 min
- AUC(0-t) ([7]; human, oral, 60 mg, Fed, read-out: AUC0-24 hr): 77.9 ng·h/mL
- AUC(0-t) ([7]; human, oral, 60 mg, Fed, read-out: AUC0-last): 81.1 ng·h/mL
- Tmax ([7]; human, oral, 60 mg, Fed): 180 min
- Cmax ([7]; Fasted, single oral 60 mg, human adults): 75.6 ng/mL
- concentration at 24 h ([8]; both sexes, human, plasma, oral dose mixtures, adult humans, FIGS. 14-25, read-out: Plasma concentration of intact d-MPH-CO2CH2-nicotinoyl-L-Ser chloride at 24 hours post dose): < 1 ng/mL
- Accumulation of intact d-MPH-CO2CH2-nicotinoyl-L-Ser chloride in the bloodstream after the 7th dose ([8]; dose 1 vs dose 7 plasma concentrations at 24 hours): negligible
- Time until which plasma concentrations of intact d-MPH-CO2CH2-nicotinoyl-L-Ser chloride increased ([8]; oral dose mixtures, adult humans, FIGS. 14-25): about 2 hours

SMILES: COC(=O)[C@H](c1ccccc1)[C@H]1CCCCN1C(=O)OC[n+]1cccc(C(=O)N[C@H](C(=O)O)[C@@H](C)O)c1.[Cl-] [d-MPH-CO2CH2-nicotinoyl-L-Thr, 3-(((1S,2R)-1-carboxy-2-hydroxypropyl)carbamoyl)-1-(((R)-2-(2-(R)-methoxy-2-oxo-1-phenylethyl)piperidine-1-carbonyloxy)methyl)pyridium chloride]
- d:l Ratio AUC [4]: ~53%
- d:l Ratio Cmax [4]: about 58%

SMILES: COC(=O)C(c1ccccc1)C1CCCCN1 (stereo not drawn) [unconjugated MPH, methyl 2-phenyl-2-(piperidin-2-yl)acetate]
- d:l Ratio Tmax [4]: 62%

SMILES: COC(=O)[C@@H](c1ccccc1)[C@@H]1CCCCN1 [l-MPH•HCl]
- AUC ([4]; analyte l-MPH): 96.4 ng·h/mL
- Tmax ([4]; analyte l-MPH): 42 min
- Cmax ([4]; analyte l-MPH): 51.5 ng/mL
